Counter-ions that a name gives are not always drawn.
Columns and labels:
[1] = target: T1, recombinant human liver glycogen phosphorylase (Homo sapiens, UniProt P06737); test: Measuring liver glycogen phosphorylase activity (forward reaction system, NADPH absorbance at 340 nm); type: biochemical; conditions: enzyme inhibitory activity with respect to liver glycogen phosphorylase; class symbols
T1 construct: made in house; host or cells: Sf9 insect cells (crude homogenate, diluted, used as the enzyme solution)
T1 sequence (P06737 1-847): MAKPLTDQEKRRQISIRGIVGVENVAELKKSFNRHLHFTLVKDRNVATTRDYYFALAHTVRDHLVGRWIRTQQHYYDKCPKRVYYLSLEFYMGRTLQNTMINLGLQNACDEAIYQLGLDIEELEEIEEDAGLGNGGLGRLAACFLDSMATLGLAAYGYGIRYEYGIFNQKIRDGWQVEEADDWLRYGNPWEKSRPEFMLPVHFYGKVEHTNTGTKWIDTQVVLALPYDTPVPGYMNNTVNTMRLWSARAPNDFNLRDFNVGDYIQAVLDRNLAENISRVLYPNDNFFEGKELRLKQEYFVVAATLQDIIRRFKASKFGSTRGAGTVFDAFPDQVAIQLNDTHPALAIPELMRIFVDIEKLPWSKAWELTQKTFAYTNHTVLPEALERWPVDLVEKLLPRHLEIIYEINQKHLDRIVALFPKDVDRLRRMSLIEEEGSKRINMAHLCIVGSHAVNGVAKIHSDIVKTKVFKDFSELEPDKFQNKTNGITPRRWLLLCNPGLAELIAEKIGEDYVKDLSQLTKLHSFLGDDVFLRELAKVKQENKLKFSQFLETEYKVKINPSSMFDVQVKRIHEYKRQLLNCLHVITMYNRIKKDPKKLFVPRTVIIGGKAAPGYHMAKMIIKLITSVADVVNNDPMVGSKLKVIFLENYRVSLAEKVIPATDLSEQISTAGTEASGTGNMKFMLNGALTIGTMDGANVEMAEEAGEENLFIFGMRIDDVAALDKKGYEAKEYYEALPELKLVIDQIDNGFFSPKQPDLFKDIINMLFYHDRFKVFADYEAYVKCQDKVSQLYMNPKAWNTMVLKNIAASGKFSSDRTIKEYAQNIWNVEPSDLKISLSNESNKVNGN
Procedure, shortened: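 Compounds in 1% DMSO; activity taken as blank-subtracted 340 nm absorbance change across 75 min at room temperature. Forward reaction: glucose-1-phosphate released from glycogen converted by coupling enzymes, yielding NADPH; enzyme from recombinant Sf9 homogenate, reaction containing glucose, pH 6.8. IC50 from two-point linear interpolation.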

db/db mice = test: Measuring blood plasma glucose concentration in db/db mice (hypoglycemic effect); type: in vivo; design: key: ++: compounds exhibiting statistically significant hypoglycemic effect at a dose of 10 mg/kg or less; +: compounds exhibiting not significant but obvious hypoglycemic effect at a dose of 10 mg/kg; conditions: db/db mice fasted 4 h, oral administration, plasma glucose 1 and 3 hours after administration, dose 10 mg/kg or less, Dunnett test vs solvent
Procedure: 2. Exemplary Test (2) Method for Measuring Blood Plasma Glucose Concentration
Using db/db mice representing an obesity type of diabetic model were used to examine the effect of compound (1) of the present invention on glucose concentrations in plasma. Plasma glucose concentrations of the db/db mice (9-18 weeks old) were measured, and the mice were divided into groups each of 5 or 8 mice such that there would be no difference in the average value of plasma glucose concentrations. After fasting for four hours, the example compound or the solvent (0.5% methylcellulose) was administered orally to the db/db mice, and plasma glucose concentrations were measured 1 and 3 hours after administration. The analysis of the hypoglycemic effect of the example compound was performed through a statistical test at every hour between the group receiving the solvent and the groups of example compound (Dunnett test).

Row | IC50 [1] [µM] | SMILES | vivo (hypoglycemic effect in db/db mice) (db/db mice) | vivo (hypoglycemic effect in db/db mice) (db/db mice; 10 mg/kg)
1 | < 0.1 | COCCN(C(=O)c1cc(NC(=O)c2cc(F)c(F)cc2Cl)[nH]n1)C1CCCCC1 [Example 1-90] | + | 
2 | < 0.1 | O=C(Nc1cc(C(=O)N(Cc2cccnc2)C2CCCCC2)n[nH]1)c1cc(F)c(F)cc1Cl [Example 1-91] | + | 
3 | < 0.1 | CCCN(CCOC)C(=O)c1cc(NC(=O)c2cc(F)c(F)cc2Cl)[nH]n1 [Example 1-95] | + | 
4 | < 0.1 | CCCCN(C(=O)c1cc(NC(=O)c2cc(F)c(F)cc2Cl)[nH]n1)C1CCOCC1 [Example 1-96] | + | 
5 | < 0.1 | COCCN(C(=O)c1cc(NC(=O)c2cc(F)c(F)cc2Cl)[nH]n1)C1CCCC1 [Example 1-98] | + | 
6 | < 0.1 | COCCCN(C(=O)c1cc(NC(=O)c2cc(F)c(F)cc2Cl)[nH]n1)C1CCCCC1 [Example 1-99] | + | 
7 | < 0.1 | CCOCCN(C(=O)c1cc(NC(=O)c2cc(F)c(F)cc2Cl)[nH]n1)C1CCCCC1 [Example 1-100] | + | 
8 | < 0.1 | CCCCN(Cc1cccnc1)C(=O)c1cc(NC(=O)c2cc(F)c(F)cc2Cl)[nH]n1 [Example 1-107] | ++ | 
9 | < 0.1 | CCCCN(C(=O)c1cc(NC(=O)c2cc(F)c(F)cc2Cl)[nH]n1)C1CCN(C(=O)C(=O)O)CC1 [Example 1-113] | ++ | 
10 | < 0.1 | CCCN(Cc1ccc(OC)nc1)C(=O)c1cc(NC(=O)c2cc(F)c(F)cc2Cl)[nH]n1 [Example 1-116] | ++ | 
11 | < 0.1 | CCCN(Cc1cccnc1)C(=O)c1cc(NC(=O)c2cc(F)c(F)cc2Cl)[nH]n1 [Example 1-117] | + | 
12 | < 0.1 | CCCN(C(=O)c1cc(NC(=O)c2cc(F)c(F)cc2Cl)[nH]n1)C1CCN(C(=O)C(=O)O)CC1 [Example 1-123] | + | 
13 | < 0.1 | COc1ccc(CN(C(=O)c2cc(NC(=O)c3cc(F)c(F)cc3Cl)[nH]n2)C2CC2)cn1 [Example 1-126] | + | 
14 | < 0.1 | COc1ccc(CN(C(=O)c2cc(NC(=O)c3cc(F)c(F)cc3Cl)[nH]n2)C2CCC2)cn1 [Example 1-127] | + | 
15 | < 0.1 | COc1ccc(CN(CC2CC2)C(=O)c2cc(NC(=O)c3cc(F)c(F)cc3Cl)[nH]n2)cn1 [Example 1-128] | + | 
16 | < 0.1 | CN(C)c1ccc(CNC(=O)c2cc(NC(=O)c3cc(F)c(F)cc3Cl)[nH]n2)cn1 [Example 1-129] |  | +
17 | < 0.1 | CCCN(Cc1ccc(N(C)C)nc1)C(=O)c1cc(NC(=O)c2cc(F)c(F)cc2Cl)[nH]n1 [Example 1-130] | + | 
18 | < 0.1 | CCCN(Cc1ccc(Cl)nc1)C(=O)c1cc(NC(=O)c2cc(F)c(F)cc2Cl)[nH]n1 [Example 1-133] | + | 
19 | < 0.1 | O=C(NCc1c(Cl)cccc1Cl)c1cc(NC(=O)c2cc(F)c(F)cc2Cl)[nH]n1 [Example 1-134] | + | 
20 | < 0.1 | O=C(NCc1c(Cl)cncc1Cl)c1cc(NC(=O)c2cc(F)c(F)cc2Cl)[nH]n1 [Example 1-135] | + | 

Row | IC50 [1] [µM] | SMILES | vivo (hypoglycemic effect in db/db mice) (db/db mice) | vivo (hypoglycemic effect in db/db mice) (db/db mice; 10 mg/kg)
21 | < 0.1 | CCCN(Cc1c(Cl)cncc1Cl)C(=O)c1cc(NC(=O)c2cc(F)c(F)cc2Cl)[nH]n1 [Example 1-136] | + | 
22 | < 0.1 | O=C(NCc1ccc(-n2cccn2)nc1)c1cc(NC(=O)c2cc(F)c(F)cc2Cl)[nH]n1 [Example 1-137] | + | 
23 | < 0.1 | O=C(NCc1ccc(N2CCC(O)CC2)nc1)c1cc(NC(=O)c2cc(F)c(F)cc2Cl)[nH]n1 [Example 1-138] | + | 
24 | < 0.1 | Cc1cc(C)c(CNC(=O)c2cc(NC(=O)c3cc(F)c(F)cc3Cl)[nH]n2)cn1 [Example 2-4-1, 5-(2-chloro-4,5-difluoro-benzoylamino)-1H-pyrazole-3-carboxylic acid (4,6-dimethyl-pyridin-3-ylmethyl)-amide dihydrochloride] | ++ | 
25 | < 0.1 | COc1nc(C)ccc1CNC(=O)c1cc(NC(=O)c2cc(F)c(F)cc2Cl)[nH]n1 [Example 2-5, 5-(2-chloro-4,5-difluoro-benzoylamino)-1H-pyrazole-3-carboxylic acid (2-methoxy-6-methyl-pyridin-3-ylmethyl)-amide] | ++ | 
26 | < 0.1 | COc1cc(C)ncc1CNC(=O)c1cc(NC(=O)c2cc(F)c(F)cc2Cl)[nH]n1 [Example 2-6, 5-(2-chloro-4,5-difluoro-benzoylamino)-1H-pyrazole-3-carboxylic acid (4-methoxy-6-methyl-pyridin-3-ylmethyl)-amide] | ++ | 
27 | < 0.1 | COc1nc(C)cc(C)c1CNC(=O)c1cc(NC(=O)c2cc(F)c(F)cc2Cl)[nH]n1 [Example 2-7-1, 5-(2-chloro-4,5-difluoro-benzoylamino)-1H-pyrazole-3-carboxylic acid (2-methoxy-4,6-dimethyl-pyridin-3-ylmethyl)-amide dihydrochloride] | ++ | 
28 | < 0.1 | Cc1cccnc1CNC(=O)c1cc(NC(=O)c2cc(F)c(F)cc2Cl)[nH]n1 [Example 2-8] | + | 
29 | < 0.1 | Cc1ccnc(CNC(=O)c2cc(NC(=O)c3cc(F)c(F)cc3Cl)[nH]n2)c1 [Example 2-9] | + | 
30 | < 0.1 | Cc1ccc(CNC(=O)c2cc(NC(=O)c3cc(F)c(F)cc3Cl)[nH]n2)nc1 [Example 2-10] | + | 
31 | < 0.1 | Cc1cccc(CNC(=O)c2cc(NC(=O)c3cc(F)c(F)cc3Cl)[nH]n2)n1 [Example 2-11] | + | 
32 | < 0.1 | O=C(NCc1ccc(F)nc1)c1cc(NC(=O)c2cc(F)c(F)cc2Cl)[nH]n1 [Example 2-13] | + | 
33 | < 0.1 | CS(=O)(=O)Nc1cccc(CNC(=O)c2cc(NC(=O)c3cc(F)c(F)cc3Cl)[nH]n2)c1 [Example 2-15] | + | 
34 | < 0.1 | O=C(NCc1ccc(Cl)nc1)c1cc(NC(=O)c2cc(F)c(F)cc2Cl)[nH]n1 [Example 2-23] | + | 
35 | < 0.1 | O=C(NCc1cccnc1Cl)c1cc(NC(=O)c2cc(F)c(F)cc2Cl)[nH]n1 [Example 2-24] | + | 
36 | < 0.1 | O=C(NCc1cccnc1F)c1cc(NC(=O)c2cc(F)c(F)cc2Cl)[nH]n1 [Example 2-27] | + | 
37 | < 0.1 | Cc1ncccc1CNC(=O)c1cc(NC(=O)c2cc(F)c(F)cc2Cl)[nH]n1 [Example 2-28] | + | 
38 | 0.1 to 0.3 | O=C(NCc1ccccc1)c1cc(NC(=O)c2cc(F)c(F)cc2Cl)[nH]n1 [Example 3-2, 5-(2-chloro-4,5-difluoro-benzoylamino)-1H-pyrazole-3-carboxylic acid benzylamide] | + | 
39 | 0.1 to 0.3 | CN(C(=O)c1cc(NC(=O)c2cc(F)c(F)cc2Cl)[nH]n1)c1ccccc1 [Example 3-4] | + | 
40 | < 0.1 | CCN(C(=O)c1cc(NC(=O)c2cc(F)c(F)cc2Cl)[nH]n1)c1ccccc1 [Example 3-11] | + | 
